These are literature values, as cited in patent US11220552B2, “Anti-CD20 combinations for treating tumors” (BIRDIE BIOPHARMACEUTICALS, INC., priority 2016, dated 2022).

One data set concerns the target T1, CD20 (Homo sapiens, UniProt P11836).
T1 sequence (P11836 1-297): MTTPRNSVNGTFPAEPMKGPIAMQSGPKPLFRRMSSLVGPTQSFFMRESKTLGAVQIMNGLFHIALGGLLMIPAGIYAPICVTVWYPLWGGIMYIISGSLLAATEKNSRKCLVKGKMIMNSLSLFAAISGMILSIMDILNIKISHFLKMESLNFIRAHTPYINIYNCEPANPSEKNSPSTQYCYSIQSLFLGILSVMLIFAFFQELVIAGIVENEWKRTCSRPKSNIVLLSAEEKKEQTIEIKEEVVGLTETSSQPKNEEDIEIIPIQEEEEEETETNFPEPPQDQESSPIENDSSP
Conditions: Asp101 instead of Asn101 in CDR3 of variable heavy chain, versus rituximab CDRs.

Data set [1] deals with three human lymphoma cell lines.
In data set [2] the test system is rituximab-sensitive and resistant cells.

Take “Veltuzumab: humanized, type I anti-CD20 IgG1 mAb with CDRs identical to rituximab except Asp101 instead of Asn101”: the off-rates result with CD20 was “significantly slower”. Further, in data set [1], the CDC cytotoxicity entry is “increased”.
For “GA101: fully humanized, type II, glycoengineered IgG1 anti-CD20 mAb (Glycart/Roche)”, the “activity in rituximab-resistant cell lines” value in data set [2] (rituximab-resistant cell lines) is on record as “activity”.
As to “Ofatumumab: fully human type I anti-CD20 IgG1kappa mAb (Genmab)”, the “potency compared with rituximab” value in data set [2] (both rituximab-sensitive and resistant cells) is on record as “more potent than rituximab”.
On to “Ocrelizumab: type I second generation humanized anti-CD20 mAb (Genentech/Roche/Biogen)”, for which, in the data set on lymphoid malignancies, the “ADCC activity compared with rituximab” value was “increased” and the “CDC activity compared with rituximab” value is given as “lower”.
